Assay results published in article PMC7822874, “Chemoprotective antimalarials identified through quantitative high-throughput screening of Plasmodium blood and liver stage parasites” (Scientific Reports, 2021).
Where two headings read alike, the source gives them in different places.

Assays:
in vitro [1] = settings: human, hepg2 cells
[2] = tested on: Plasmodium falciparum Dd2 asexual blood stage parasites; assay: microbe, parasite or virus in culture; parameters: species or system Plasmodium falciparum Dd2 in human erythrocytes; single determination (one 11-point concentration-response curve); settings: Plasmodium falciparum, DD2, Erythrocyte, 72 h; read-out: AC50
in vitro [3] = settings: human, HepG2-A16-CD81EGFP cells, uninfected
[4] = tested on: P. berghei-ANKA-GFP-LucCON liver stage parasites in HepG2-A16-CD81EGFP cells; assay: P. berghei liver stage Pb-Luc assay, Method 1 (UCSD, 1536-well); type: cell-based, Plasmodium berghei; settings: P. berghei liver stage, averaged response (percent); for Average P. berghei 1 µM response (%): the header list (r8) defines it as the 1 µM dose
in vitro [5] = settings: human, hepg2-a16-cd81egfp cells, % viability
[6] = tested on: P. falciparum Dd2 (clone B2) asexual blood stage parasites; assay: P. falciparum Dd2 asexual blood stage SYBR Green-I 72 h proliferation assay (qHTS); type: cell-based, Plasmodium falciparum; settings: log10 of AC50 in M; for Pf ABS Log AC50 (M): averaged P. falciparum asexual blood stage potency
HepG2-A16-CD81EGFP cells = settings: averaged response (percent)
[7] = tested on: luciferase-expressing P. berghei liver stage parasites in HepG2 cells; assay: Inhibition of liver-stage development assay (ILSDA), Method 2 (WRAIR, 96-well); type: cell-based, Plasmodium berghei; settings: Method 2, dose response; for AC50: Plasmodium berghei, HepG2, P. berghei liver stage
[8] = HepG2, the header list (r10) describes it as the 1 µM dose

SMILES	CC50 at 48 h (in vitro [1]) [µM]	AC50 [2] [µM]	Average P. berghei 3 µM response( %) [4] [%]	Average P. berghei 1 µM response (%) [4] [%]	viability at 3 µM (in vitro [5]) [%]	Pf ABS Log AC50 (M) [6] [M]	Average HepG2 3 µM response( %) (HepG2-A16-CD81EGFP cells; HepG2, 3 µM dose) [%]	Average HepG2 3 µM response( %) (HepG2-A16-CD81EGFP cells; [8]) [%]	other results
O=c1c2nc(-c3cccc(O)c3)ccc2ncn1C1CC1 [NCGC00414734-01]	> 57	–	–	–	–	–	–	–	–
Cc1csc(Nc2ccc3c(n2)CN(Cc2ccccc2C)C(=O)CO3)n1 [NCGC00413860-01]	> 57	19.3	–	–	–	–	–	–	–
Cc1nn2c(c1-c1ccccc1Oc1ccccc1)N(Cc1cccc(O)c1)CCC2 [NCGC00420295-01]	> 57	10.9	–	–	–	–	–	–	–
CCCn1c2c(c(=N)c3c1CCC3)CCC2 [MLS001047442-01]	> 57	13.3	–	–	–	–	–	–	viability at 48 h (in vitro [3]): 99.2%; viability at 48 h, 1 µM (in vitro [3]): 99.2%
Cc1noc(C)c1-c1cc2c(cc(-c3ccccc3)n2C)c(-c2ccnn2C)n1 [NCGC00417162-01]	> 57	8.63	–	–	–	–	–	–	–
Cc1nn2c(c1-c1ccccc1-c1ccccc1)N(Cc1cccc(O)c1)CCC2 [NCGC00420293-01]	> 57	4.85	–	–	–	–	–	–	–
COCCNc1ncccc1-c1noc([C@@H]2CCCN2Cc2ccccn2)n1 [NCGC00394837-01]	> 57	7.69	–	–	–	–	–	–	–
Cc1nn2c(c1-c1ccccc1OCc1ccccc1)N(Cc1ccccc1)CCC2 [NCGC00420471-01]	> 57	15.3	–	–	–	–	–	–	–
CCc1ccccc1OC[C@@H](O)CN[C@@H]1CCCc2ccccc21 [NCGC00025196]	–	–	77	73	91.7	-5.800	92	95	–
CCN(CC)CCN1C(=O)c2ccccc2NC1c1ccc(N(C)C)cc1 (stereo not shown) [MLS000554078]	–	–	84	102	95.7	-5.612	96	103	–
O=C(Nc1ccc(-c2csc(Nc3cccc(C(F)(F)F)c3)n2)cc1)c1cc([N+](=O)[O-])cc(C(F)(F)F)c1 [MLS000911524]	–	–	73	100	101	-5.387	101	101	–
Cc1nn2c(c1-c1ccccc1C(C)C)N(CCC(C)C)CCC2 [NCGC00420439-01]	> 57	2.17	–	–	–	–	–	–	–
CCN(CC)Cc1cc2[nH]c3c4ccc(Cl)cc4ncc3c2cc1OC [MLS000757007]	–	–	134	108	101	-6.700	101	105	–
CN(C)c1ccc2ncc(Nc3ccc(Oc4ccccc4)cc3)n2n1 [NCGC00412534-01]	> 57	8.63	–	–	–	–	–	–	–
O=C(Nc1ccc(Cl)cc1)c1nc2c(o1)CCN(Cc1ccc(F)cc1F)CC2 [NCGC00413332-01]	> 57	–	–	–	–	–	–	–	–
Cc1cc(C)c(-c2csc(NC(=O)CCCc3nc4ccccc4c(=O)[nH]3)n2)c(C)c1 [MLS001156669]	–	–	12	72	103	-5.900	103	99	–

SMILES	CC50 at 48 h (in vitro [1]) [µM]	AC50 [2] [µM]	Average P. berghei 3 µM response( %) [4] [%]	Average P. berghei 1 µM response (%) [4] [%]	viability at 3 µM (in vitro [5]) [%]	Pf ABS Log AC50 (M) [6] [M]	Average HepG2 3 µM response( %) (HepG2-A16-CD81EGFP cells; HepG2, 3 µM dose) [%]	Average HepG2 3 µM response( %) (HepG2-A16-CD81EGFP cells; [8]) [%]	other results
Cc1nn2c(c1-c1ccccc1[S+](C)(=O)[O-])N(Cc1ccc(C(=O)O)s1)CCC2 [NCGC00420344-01]	> 57	7.69	–	–	–	–	–	–	–
COc1ccc(-c2cc3nc4c(c(=O)n3[nH]2)CN(C(=O)c2ccc(Cc3c(C)noc3C)o2)CC4)cc1 [NCGC00440331-01]	0.685	–	–	–	–	–	–	–	–
CCN1CCN(c2cc(C)c3cc(NC(=O)c4cccc(Cl)c4)ccc3n2)CC1 [NCGC00103820-01]	> 57	4.73	–	–	–	–	–	–	–
N=c1c2c(n(Cc3ccc(F)cc3)c3c1CCC3)CCC2 [MLS000107591]	–	–	16	68	77.7	-5.862	78	100	–
O=C(Nc1ncccc1O)c1ccc(NS(=O)(=O)c2ccc3[nH]c(=O)[nH]c3c2)cc1 [MLS001138628]	–	–	23	59	91	-6.437	91	105	–
Cc1ccc(C)c(-n2c(-c3ccc(Br)cc3)csc2=NC(=O)c2ccccc2F)c1 [MLS000766129]	–	–	44	91	89.1	-5.187	89	97	–
CCOc1ccc(-n2c(SCC(=O)OC)nc3sc4c(c3c2=O)CCN(C)C4)cc1 [MLS001213437]	–	–	102	88	103	-5.950	103	112	–
Cc1cc(N2CCC(N(C)C3CCCC3)CC2)nc2cc(O)ccc12 [MLS000118330-01]	> 57	5.96	–	–	–	–	–	–	–
NS(=O)(=O)c1ccc(N/N=C/c2cn(-c3ccccc3)nc2-c2cccs2)cc1 [MLS000393371]	–	–	24	69	94.1	-6.762	94	91	–
COc1ccc(CN2C[C@@H](F)[C@@H](OCc3nc4cc(C)ccc4[nH]3)C2)cc1 [NCGC00393009-01]	> 57	–	–	–	–	–	–	–	–
O=c1[nH]c(N2CCOCC2)nc2c1CCN(Cc1ccc(Cl)cc1F)CC2 [NCGC00440653]	–	–	41	39	–	–	102	102	AC50 ([6]; Plasmodium falciparum, DD2, averaged P. falciparum asexual blood stage potency, read-out: Pf ABS Log AC50 (converted)): 3.35 µM; Activity direction (Decrease / Inactive) ([7]; P. berghei liver stage): Decrease; AC50 ([7]; read-out: AC50): 0.112 µM; AC50 ([7]; read-out: Log AC50 (converted)): 0.112 µM
Cc1cccc(-c2cc3nc(C)c(C)c(NCCCn4ccnc4)n3n2)c1 [MLS000529525]	–	–	119	131	87.2	-5.512	87	97	–
Cc1cc(Nc2nc3ccccc3nc2Cl)n(-c2ccccc2C)n1 [MLS000595322]	–	–	93	114	98.3	-6.062	98	93	–
O=C(c1ccc(-c2ncc3cnc(-c4cccc(F)c4)cn23)cc1)N1CCc2cccnc21 [NCGC00414026-01]	> 57	–	–	–	–	–	–	–	–
COCC(=O)N[C@H]1C[C@@H](Cc2cc(-c3ccc(OC)cc3)on2)C1(C)C [NCGC00395450-01]	> 57	–	–	–	–	–	–	–	–
